Where a name gives a salt, the structure may show the parent alone.

For the experiment, the system named is NRG1-ERBB4 signaling. The experiment is described as follows: Nrg1-ERBB4-PIK3R1 split TEV co-culture compound screen of the NIH Clinical Collection. Format: cell-based, human.
Setting [1] is: compound screen of the NIH Clinical Collection, sheet raw data NCC-003, compounds ranked by Z-score.
Setting [2] is: compounds at 10 μM, 24 h, PC12 split TEV assay cells co-cultured with Nrg1-expressing PC12 cells, analysed with cellHTS2.

Consider `CO[C@H]1O[C@@H]2O[C@@]3(C)CC[C@H]4[C@H](C)CC[C@@H]([C@H]1C)[C@@]24OO3`, for which the Z-SCORE under setting [1] is recorded as -1.01.

Turning to `Nc1ccn([C@H]2CC[C@@H](CO)O2)c(=O)n1` [2',3'-DIDEOXYCYTIDINE], the Z-SCORE under setting [1] was 1.38.

Under setting [2], `O=C1C(CC[S+]([O-])c2ccccc2)C(=O)N(c2ccccc2)N1c1ccccc1` (centres unmarked) [Sulfinpyrazone, reference compound] showed a Z-SCORE of 0.99.

`CC(C(O)c1ccc(O)cc1)N1CCC(Cc2ccccc2)CC1` (centres unmarked) [Ifenprodil] gave a Z-SCORE under setting [1] of 1.07.

As for `C[C@H]1C[C@H]2[C@@H]3CCC4=CC(=O)C=C[C@]4(C)[C@@]3(Cl)[C@@H](O)C[C@]2(C)[C@@]1(O)C(=O)CO` [Beclomethasone], the Z-SCORE under setting [1] was -0.67.

Under setting [1], `O=C(O[C@H]1[C@H](Oc2ccccc2COC(=O)C2(O)C=CCCC2=O)O[C@H](CO)[C@@H](O)[C@@H]1O)c1ccccc1` (some centres unmarked) [TREMULACIN] registered a Z-SCORE of 0.29.

The compound `CNNCc1ccc(C(=O)NC(C)C)cc1` [PROCARBAZINE HYDROCHLORIDE] displayed a Z-SCORE under setting [1] of 0.52.

In the case of `CC[C@H](C)C(=O)O[C@H]1C[C@@H](C)C=C2C=C[C@H](C)[C@H](CC[C@@H]3C[C@@H](O)CC(=O)O3)[C@H]21` [Lovastatin, reference compound], the Z-SCORE result under setting [2] is “flagged”.

Regarding `Cc1nccn1CC1CCc2c(c3ccccc3n2C)C1=O` (centres unmarked) [Ondansetron, reference compound], the Z-SCORE under setting [2] was determined as 0.12.

Under setting [2], `CC(C)(S)C(N)C(=O)O` (racemic) [DL-PENICILLAMINE, reference compound] registered a Z-SCORE of 2.02.

Consider `Nc1nc(=O)c2nc(CNc3ccc(C(=O)N[C@@H](CCC(=O)O)C(=O)O)cc3)cnc2[nH]1` [Folic acid, reference compound], for which, under setting [2], the Z-SCORE is 0.

With `CC(C[N+](C)(C)C)OC(N)=O` (centres unmarked) [Urecholine, reference compound], the Z-SCORE under setting [2] is recorded as -0.94.

`CNS(=O)(=O)Cc1ccc2[nH]cc(CCN(C)C)c2c1` [SUMATRIPTAN SUCCINATE] came in with a Z-SCORE under setting [1] of -0.07.

`CN(C)[C@@H]1C(O)=C(C(N)=O)C(=O)[C@@]2(O)C(O)=C3C(=O)c4c(O)cccc4[C@@](C)(O)[C@H]3C[C@@H]12` [TETRACYCLINE, reference compound] had a Z-SCORE under setting [2] of 0.95.

Consider `CCCc1cc(=O)[nH]c(=S)[nH]1` [Propylthiouracil, reference compound], for which the Z-SCORE under setting [2] is recorded as 0.58.

Consider `S=c1[nH]cnc2nc[nH]c12` [Mercaptopurine, reference compound], for which, under setting [2], the Z-SCORE stood at 0.

Compound `COc1ccc2[nH]cc(CCN)c2c1` [5-Methoxytryptamine] showed a Z-SCORE under setting [1] of 0.65.

For the compound `COc1cc2c(cc1OC)C(=O)C(CC1CCN(Cc3ccccc3)CC1)C2` (centres unmarked) [Donepezil], the Z-SCORE under setting [1] was determined as 0.

Regarding `CN(C)CCCC1(c2ccc(F)cc2)OCc2cc(C#N)ccc21` (centres unmarked) [Citalopram, reference compound], the Z-SCORE under setting [2] is given as -1.5.

`CCC(=O)OCC(=O)[C@@]1(OC(=O)CC)[C@@H](C)C[C@H]2[C@@H]3CCC4=CC(=O)C=C[C@]4(C)[C@@]3(Cl)[C@@H](O)C[C@@]21C` [BECLOMETHASONE DIPROPIONATE, reference compound]: under setting [2], the Z-SCORE is given as 0.81.

Compound `CCn1cc(C(=O)O)c(=O)c2ccc(C)nc21` [Nalidixic Acid, reference compound] displayed a Z-SCORE under setting [2] of 0.31.

In turn, `NC(=O)c1cccnc1` [NICOTINAMIDE] came in with a Z-SCORE under setting [1] of 2.52.

Turning to `C[C@@H](c1ncncc1F)[C@](O)(Cn1cncn1)c1ccc(F)cc1F` [VORICONAZOLE], the Z-SCORE under setting [1] is on record as -0.06.

Under setting [1], `CO[C@H]1/C=C/O[C@@]2(C)Oc3c(C)c(O)c4c(O)c(c5c(nc6cc(C)ccn65)c4c3C2=O)NC(=O)/C(C)=C\C=C\[C@H](C)[C@H](O)[C@@H](C)[C@@H](O)[C@@H](C)[C@H](OC(C)=O)[C@@H]1C` [RIFAXIMIN] showed a Z-SCORE of 0.05.

As for `Cc1ncc([N+](=O)[O-])n1CC(O)CCl` (centres unmarked) [ORNIDAZOLE], under setting [1], the Z-SCORE was found to be 2.22.

As for `C#CCN(C)[C@H](C)Cc1ccccc1` [Selegiline hydrochloride], the Z-SCORE under setting [1] is given as -0.57.
